Results as given in patent US6812225B2, “Therapeutic heterocyclic compounds” (AstraZeneca AB, priority 2001, dated 2004).

System: not given
Test: not given
Conditions: not given

melting point | SMILES
215 to 216 °C | CN1CCN(c2cccc3c2OC(C(=O)Nc2ccc(N4CCOCC4)cc2)CC3)CC1 (racemic) [Example 75, racemic-8-(4-Methyl-piperazin-1-yl)-chroman-2-carboxylic acid (4-morpholin-4-yl-phenyl)-amide]
215 to 216 °C | CN1CCN(c2cccc3c2OC(C(=O)Nc2ccc(N4CCOCC4)cc2)CC3=O)CC1 (racemic) [Example 78, racemic-8-(4-methyl-piperazin-1-yl)-4-oxo-chroman-2-carboxylic acid (4-morpholin-4-yl-phenyl)-amide]
216 °C (dec.) | CN1CCN(c2cccc3c2OC(C(=O)Nc2ccc(N4CCOCC4)cc2)CC3=O)CC1 (single isomer, unassigned) [Example 79, 8-(4-Methyl-piperazin-1-yl)-4-oxo-chroman-2-carboxylic acid (4-morpholin-4-yl-phenyl)-amide]
215 °C (dec.) | CN1CCN(c2cccc3c2OC(C(=O)Nc2ccc(N4CCOCC4)cc2)CC3=O)CC1 (single isomer, unassigned) [Example 80, 8-(4-Methyl-piperazin-1-yl)-4-oxo-chroman-2-carboxylic acid (4-morpholin-4-yl-phenyl)-amide]
206 to 207 °C | CN1CCN(c2cccc3c2OC(C(=O)Nc2ccc(N4CCOCC4)cc2)CC3)CC1 (single isomer, unassigned; (+)) [Example 76, (+)-8-(41-Methyl-piperazin-1-yl)-chroman-2-carboxylic acid (4-morpholin-4-yl-phenyl)-amide]
205.5 to 207 °C | CN1CCN(c2cccc3c2OC(C(=O)Nc2ccc(N4CCOCC4)cc2)CC3)CC1 (single isomer, unassigned; (-)) [Example 77, (−)-8-(4-Methyl-piperazin-1-yl)-chroman-2-carboxylic acid (4-morpholin-4-yl-phenyl)-amide]
233 to 234 °C | CCS(=O)(=O)N1CCN(c2ccc(NC(=O)c3cc(=O)c4cc(F)cc(N5CCN(C)CC5)c4o3)cc2)CC1 [Example 71]
244 to 245 °C | CCC(=O)N1CCN(c2ccc(NC(=O)c3cc(=O)c4cc(F)cc(N5CCN(C)CC5)c4o3)cc2)CC1 [Example 72, 6-flouro-8-(4-methyl-piperazin-1-yl)-4-oxo-4H-chromene-2-carboxylic acid [4-(4-propionyl-piperazin-1-yl)-phenyl]-amide]
195 to 199 °C | CN1CCN(c2cc(F)cc3c(=O)cc(C(=O)Nc4ccc(N5CCN(C(=O)CCO)CC5)cc4)oc23)CC1 [Example 73, 6-Fluoro-8-(4-methyl-piperazin-1-yl)-4-oxo-4H-chromene-2-carboxylic acid {4-[4-(3-hydroxy-propanoyl)-piperazin-1-yl]-phenyl}-amide]
236 to 238 °C | CCNC(=O)N1CCN(c2ccc(NC(=O)c3cc(=O)c4cc(F)cc(N5CCN(C)CC5)c4o3)cc2)CC1 [Example 81, 4-[4-({1-[6-Fluoro-8-(4-methyl-piperazin-1-yl)-4-oxo-4H-chromen-2-yl]-methanoyl}-amino)-phenyl]-piperazine-1-carboxylic acid ethylamide]

Further lines, the compound ahead of its results:

SMILES | melting point
CN1CCN(c2cccc3c(=O)cc(C(=O)Nc4ccc(N5CCOCC5)cc4)oc23)CC1 [Example 1, 8-(4-methyl-1-piperazinyl)-N-[4-(4-morpholinyl)phenyl]-4-oxo-4H-chromene-2-carboxamide] | 217 to 218 °C (dec.)
CN1CCN(c2cccc3c(=O)cc(-c4nc5ccc(N6CCOCC6)cc5o4)oc23)CC1 [Example 21, 8-(4-Methyl-piperazin-1-yl)-2-(6-morpholin-4-yl-benzooxazol-2-yl)-chromen-4-one] | 158.1 to 158.8 °C
CN1CCN(c2cccc3c(=O)cc(C(=O)Nc4ccc(N5CCOCC5)cc4O)oc23)CC1 [Example 22, 8-(4-Methyl-piperazin-1-yl)-4-oxo-4H-chromene-2-carboxylic acid (2-hydroxy-4-morpholin-4-yl-phenyl)-amide] | 248.4 to 249.6 °C
CN1CCN(c2cccc3c(=O)cc(C(=O)N(C)c4ccc(N5CCOCC5)cc4)oc23)CC1 [Example 25, 8-(4-Methylpiperazin-1-yl)-4-oxo-4H-chromene-2-carboxylic acid methyl-(4-morpholin-4-yl-phenyl)amide] | 245 to 246.8 °C
COc1cc(N2CCN(C)CC2)c2oc(C(=O)Nc3ccc(N4CCOCC4)cc3)cc(=O)c2c1 [Example 31, 6-Methoxy-8-(4-methyl-piperazin-1-yl)-4-oxo-4H-chromene-2-carboxylic acid (4-morpholin-4-yl-phenyl)-amide] | 234 to 236 °C
CCS(=O)(=O)N1CCN(c2ccc(NC(=O)c3cc(=O)c4cc(OC)cc(N5CCN(C)CC5)c4o3)cc2)CC1 [Example 45, 6-Methoxy-8-(4-methyl-piperazin-1-yl)-4-oxo-4H-chromene-2-carboxylic acid [4-(4-ethanesulfonyl-piperazin-1-yl)-phenyl]-amide] | 232 to 234 °C
COc1cc(N2CCN(C)CC2)c2oc(C(=O)Nc3ccc(N4CCN(C(=O)CCO)CC4)cc3)cc(=O)c2c1 [Example 68, 6-Methoxy-8-(4-methyl-piperazin-1-yl)-4-oxo-4H-chromene-2-carboxylic acid {4-[4-(3-hydroxy-propanoyl)-piperazin-1-yl]-phenyl}-amide] | 195 to 197 °C

System: guinea pigs
Test: Learned helplessness test
Assay type: in vivo, guinea pig
Conditions: antidepressant/antianxiety activity
Excerpt: The utility of the compounds for example to treat depression may be shown via a learned helplessness test in guinea pigs, which is used extensively as correlative to antidepressant activity in humans. The learned helplessness test may be carried out as follows: Seventy male Hartley guinea pigs, each weighing about 350-425 gm are fed ad lib, and are housed under a 12-hour light/dark cycle. The procedure consists of two phases: The induction phase and the avoidance training phase. In the induction phase, subjects are placed into standard shuttle cages (20 L×16 W×21 centimeters H) which are fitted with a grid floor. Electrical stimulation (1.25 mA, 10 sec duration) is delivered to the floor of the cage every 90-sec during 1 hour daily sessions. Subjects have no opportunity to escape or to avoid shocks. Induction is conducted for 2 consecutive days.
In avoidance training, testing is also conducted in the shuttle cages, except that the subjects are not returned to the same chamber in which induction had occurred. Additionally, all cages are fitted with a partition with an arch in the center of the cage, through which animals can pass between the left and right halves of the cage. The procedure employed is a standard shuttle avoidance procedure in which a compound, conditioned stimulus (a 10-sec presentation of a tone and turning on of a lamp on the side of the cage that the guinea pig was occupying) serves to indicate presentation of electrical current to the floor of the cage. Shock is presented for a 5 sec period, 5 sec after initiation of the conditioned stimulus. Entry into the opposite side of the shuttle cage via the arched partition prior to shock onset results in the end of the trial (avoidance response). If shock is delivered, entry into the opposite side of the cage results in termination of the shock and CS (escape). Reversal of learned helplessness in the induction subjects correlates to antidepressant activity of the test compound.
Avoidance training, 45-min in duration, is conducted on 2 consecutive days, beginning 48 hr after the final induction session. Seventy subjects are assigned to 1 of 6 groups of 11-12 animals. The groups are as follows:
Groups 2-6 are given induction and avoidance training sessions. Injections are administered immediately following induction sessions and 1 hour prior to avoidance training sessions. A second injection is administered 7-8 hours following the first injection, for a total of 9 injections administered over 5 days. No injections are administered following the final avoidance training session.
Compounds of the present invention may be administered in a volume of 1 ml/kg bwt. Imipramine is dissolved in DI water. The compounds are dissolved in DI water, to which was added a few drops of lactic acid (pH 5.5). […]

SMILES | activity in the learned helplessness assay
COc1cc(N2CCN(C)CC2)c2oc(C(=O)Nc3ccc(N4CCOCC4)cc3)cc(=O)c2c1 [Example 31, 6-Methoxy-8-(4-methyl-piperazin-1-yl)-4-oxo-4H-chromene-2-carboxylic acid (4-morpholin-4-yl-phenyl)-amide] | demonstrate activity
CCC(=O)N1CCN(c2ccc(NC(=O)c3cc(=O)c4cc(OC)cc(N5CCN(C)CC5)c4o3)cc2)CC1 [Example 44, 6-Methoxy-8-(4-methyl-piperazin-1-yl)-4-oxo-4H-chromene-2-carboxylic acid [4-(4-propionyl-piperazin-1-yl)-phenyl]-amide] | demonstrate activity
CCS(=O)(=O)N1CCN(c2ccc(NC(=O)c3cc(=O)c4cc(F)cc(N5CCN(C)CC5)c4o3)cc2)CC1 [Example 71] | demonstrate activity
CCC(=O)N1CCN(c2ccc(NC(=O)c3cc(=O)c4cc(F)cc(N5CCN(C)CC5)c4o3)cc2)CC1 [Example 72, 6-flouro-8-(4-methyl-piperazin-1-yl)-4-oxo-4H-chromene-2-carboxylic acid [4-(4-propionyl-piperazin-1-yl)-phenyl]-amide] | demonstrate activity

Target: 5-HT1B and 5HT1D receptors
Test: not given
Conditions: saturation studies, guinea pig cortex; read-out: Kd value of [3H]GR125743; cited from earlier work

SMILES | Kd [nM]
COc1ccc(NC(=O)c2ccc(-c3ccncc3)c(C)c2)cc1N1CCN(C)CC1 [[^3H]-GR125743] | 0.046 ± 0.004
